In data set [1] the test system is HL-60. Put plainly: Upregulation of p21 protein expression in human HL-60 cells overexpressing p53-V272M mutant pretreated for 1 hr followed by culturing in fresh medium for 16 hrs by Western blot analysis. It is filed as functional, cell-based.
Data set [2] concerns U-937. As to the kind of experiment: Induction of intrinsic apoptosis in human U-937 cells overexpressing p53-V272M mutant assessed as upregulation of BAX gene expression by RT-qPCR analysis. It is filed as functional, cell-based. On the technique in general: In qPCR the cycle at which signal appears reflects the starting amount.
Data set [3] concerns HL-60. As to the kind of experiment: Inhibition of colony formation in human HL-60 cells harboring p53-V272M mutant at 0.2 to 3.2 uM pretreated for 1 hr followed by culturing in fresh medium and measured on day 18 by crystal violet staining based assay. It is filed as functional, cell-based. The note with it: dose 0.2-3.2 µM.
Data set [4] is described as follows: Drug accumulation in ICR mouse kidney at 10 mg/kg, iv measured upto 24 hrs by ICP-MS analysis. The format is ADME, organism-based. The note with it: in vivo.
The target of data set [5] is PML-RARalpha (Homo sapiens) (UniProt P10276+P29590). As to the kind of experiment: Induction of PML/RARalpha degradation in human NB4 cells assessed as residual protein level at 3 uM incubated for 1 hrs followed by replacement with fresh culture medium and measured after 16 hrs by Western blot analysis (reference value: 1). It is filed as cell-based.
Sequence of PML-RARalpha (Homo sapiens) (P10276 whole entry, looked up): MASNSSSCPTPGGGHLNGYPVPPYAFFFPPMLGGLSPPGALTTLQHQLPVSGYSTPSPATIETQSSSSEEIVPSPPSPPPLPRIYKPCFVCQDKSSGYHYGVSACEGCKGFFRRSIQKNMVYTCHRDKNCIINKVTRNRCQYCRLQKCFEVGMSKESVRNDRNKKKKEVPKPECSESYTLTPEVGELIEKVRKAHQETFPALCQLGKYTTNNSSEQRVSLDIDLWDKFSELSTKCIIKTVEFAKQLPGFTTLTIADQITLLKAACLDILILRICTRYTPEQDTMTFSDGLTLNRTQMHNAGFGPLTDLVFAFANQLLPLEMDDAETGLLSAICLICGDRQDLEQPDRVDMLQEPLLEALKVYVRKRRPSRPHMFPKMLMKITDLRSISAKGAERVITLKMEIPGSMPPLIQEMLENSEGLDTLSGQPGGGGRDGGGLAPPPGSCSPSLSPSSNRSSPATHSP
Sequence of PML-RARalpha (Homo sapiens) (P29590 whole entry, looked up): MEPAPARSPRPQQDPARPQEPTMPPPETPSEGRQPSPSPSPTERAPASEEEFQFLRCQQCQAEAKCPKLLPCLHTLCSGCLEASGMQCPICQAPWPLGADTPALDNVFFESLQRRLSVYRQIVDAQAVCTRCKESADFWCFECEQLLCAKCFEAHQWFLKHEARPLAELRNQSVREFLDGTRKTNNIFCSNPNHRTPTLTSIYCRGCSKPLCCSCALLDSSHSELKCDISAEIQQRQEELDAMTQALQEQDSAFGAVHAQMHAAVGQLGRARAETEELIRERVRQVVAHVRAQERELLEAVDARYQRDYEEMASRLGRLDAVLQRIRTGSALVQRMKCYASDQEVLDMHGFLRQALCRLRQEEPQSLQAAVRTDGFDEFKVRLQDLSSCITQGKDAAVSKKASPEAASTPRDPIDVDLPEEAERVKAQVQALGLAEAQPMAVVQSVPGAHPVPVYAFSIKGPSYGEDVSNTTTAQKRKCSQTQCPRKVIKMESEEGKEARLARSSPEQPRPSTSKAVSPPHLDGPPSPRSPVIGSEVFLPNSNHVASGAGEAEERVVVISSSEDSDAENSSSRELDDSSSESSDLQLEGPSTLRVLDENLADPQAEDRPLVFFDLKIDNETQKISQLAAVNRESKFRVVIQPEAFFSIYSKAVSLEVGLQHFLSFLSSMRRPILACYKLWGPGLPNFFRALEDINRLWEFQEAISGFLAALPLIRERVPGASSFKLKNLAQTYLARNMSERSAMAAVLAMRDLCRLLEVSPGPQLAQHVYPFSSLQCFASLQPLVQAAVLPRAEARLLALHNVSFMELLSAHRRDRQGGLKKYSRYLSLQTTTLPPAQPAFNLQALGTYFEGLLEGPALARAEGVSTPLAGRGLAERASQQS
A short description of data set [6]: Drug uptake in HFL1 cells at 10 uM measured after 10 mins by ICP-MS analysis. The note with it: human, hfl1, 10 min. The format is ADME, cell-based.
Data set [7] in a line: Drug accumulation in ICR mouse liver at 10 mg/kg, iv measured upto 24 hrs by ICP-MS analysis. The format is ADME, organism-based. The note with it: in vivo.
A short description of data set [8]: Drug uptake in human HepG2 cells at 1 to 10 uM incubated for 5 mins at 4 degreeC by ICP-MS analysis. It is filed as ADME, cell-based. The note with it: hepg2, 5 min, dose 1-10 µM.
Data set [9] relates to U-937. As to the kind of experiment: Induction of cell cycle arrest in human U-937 cells overexpressing p53-V272M mutant assessed as upregulation of BTG2 gene expression by RT-qPCR analysis. The format is functional, cell-based.
The subject of data set [10] is U-937. As to the kind of experiment: Antitumor activity against GFP-tagged human U-937 cells harboring p53 V272M mutant xenografted in M-NSG mouse assessed as decrease in leukemia cell population in spleen at 25 mg/kg, ip administered for 9 days starting from 7 days post inoculation and measured on day 2,6 and 9 by FACS analysis. The format is functional, organism-based. The note with it: time 9.0 day.

Data set [11] deals with NB-4. Put plainly: Induction of apoptosis in human NB4 cells assessed as viable cells at 27 uM preincubated for 1 hrs followed by replacement with fresh culture medium and measured after 24 hrs by Annexin V-FITC/7AAD staining based flow cytometry assay (reference value: 94%). The format is functional. The note with it: read-out: Activity.
Data set [12] relates to Cellular tumor antigen p53 (Homo sapiens), P04637 [V272M]. As to the kind of experiment: Restoration of p53-V272M mutant transcriptional activity on PUMA promoter in human NCI-H1299 cells harboring siRNA-mediated CLIC1 knockdown incubated for 24 hrs by firefly/renilla based luciferase reporter assay. It is filed as cell-based. In general terms: Reporter assays use an easily measured gene product as a stand-in for the process of interest.

In data set [13] the test system is NB-4. Put plainly: Induction of apoptosis in human NB4 cells assessed as late apoptotic cells at 3 uM preincubated for 1 hrs followed by replacement with fresh culture medium and measured after 24 hrs by Annexin V-FITC/7AAD staining based flow cytometry assay (reference value: 3.71%). The format is functional. (In flow cytometry, cells or beads pass a laser one at a time.)

Data set [14] deals with U-937. As to the kind of experiment: Induction of senescence in human U-937 cells overexpressing p53-V272M mutant assessed as upregulation of PML gene expression by RT-qPCR analysis. It is filed as functional, cell-based.
For data set [15], the system named is NB-4. Put plainly: Induction of granulocytic differentiation in human NB4 cells assessed as CD11b positive cells at 9 uM incubated for 1 hrs followed by replacement with fresh culture medium for 48 hrs by flow cytometry analysis relative to control. The format is functional.
In data set [16] the test system is Cellular tumor antigen p53 (Homo sapiens), P04637 [V272M]. Put plainly: Thermostabilization of recombinant p53 V272M mutant (unknown origin) […] assessed as increase in melting temperature at 1:15 ratio in HEPES at pH 7.5 by DSF analysis.

Experimental findings from ChEMBL document CHEMBL5375988, “AcGlcAs: A Novel P53-Targeting Arsenical with Potent Cellular Uptake and Cancer Cell Selectivity” (J Med Chem, 2023) are described below.

Activity calls are given as the source filed them. The rule behind the calls is not given here.

Take `CC(=O)OC[C@H]1O[C@@H](S[As]2SCCS2)[C@H](OC(C)=O)[C@@H](OC(C)=O)[C@@H]1OC(C)=O`: the outcome in data set [1], in data set [2], in data set [9] and in data set [10] was Active. In addition, in data set [3], the inhibition result was “Active”. Further, the Drug uptake entry is reported as “Active” in data set [4], “Active” in [6], “Active” in [7] and “Not Active” in [8]. The Activity in [5] came to 0.18; in [13] it was 4.45%; in [15], 20.9%. The viability at 27 µM in data set [11] is 54.1%. Besides, the result in [12], in [14] and in data set [16] was inactive.
